Experiment: xn = mol fraction of the nth substance listed

O=S(=O)(O)CCCN1CCOCC1 + O
viscosity [mPa·s], 101.3 kPa
Settings	x1 = 0.003708	x1 = 0.007256	x1 = 0.009684	x1 = 0.01083	x1 = 0.01439	x1 = 0.0179
298.15 K	0.947	1.027	1.07	1.098	1.189	1.276
308.15 K	0.765	0.826	0.863	0.886	0.963	1.03
318.15 K	0.634	0.684	0.711	0.733	0.797	0.851

NC(CO)(CO)CO + O
Settings	viscosity [mPa·s]
298.15 K, 101 kPa, x1 = 0.001	0.91
298.15 K, 101 kPa, x1 = 0.01	1.03
298.15 K, 101 kPa, x1 = 0.022	1.18
298.15 K, 101 kPa, x1 = 0.034	1.46
298.15 K, 101 kPa, x1 = 0.055	1.97
303 K, 101 kPa, x1 = 0.06	2.19
303.15 K, 101 kPa, x1 = 0.001	0.79
303.15 K, 101 kPa, x1 = 0.01	0.91
303.15 K, 101 kPa, x1 = 0.022	1.05
303.15 K, 101 kPa, x1 = 0.034	1.28
303.15 K, 101 kPa, x1 = 0.055	1.77
303.15 K, 101.33 kPa, x1 = 0.008	0.905
303.15 K, 101.33 kPa, x1 = 0.02	1.042
303.15 K, 101.33 kPa, x1 = 0.04	1.475
303.15 K, 101.33 kPa, x1 = 0.047	1.789
308.15 K, 101 kPa, x1 = 0.001	0.69
308.15 K, 101 kPa, x1 = 0.01	0.79
308.15 K, 101 kPa, x1 = 0.022	0.94
308.15 K, 101 kPa, x1 = 0.034	1.14
308.15 K, 101 kPa, x1 = 0.055	1.54
313 K, 101 kPa, x1 = 0.06	1.68
313.15 K, 101 kPa, x1 = 0.001	0.62
313.15 K, 101 kPa, x1 = 0.01	0.71
313.15 K, 101 kPa, x1 = 0.022	0.85
313.15 K, 101 kPa, x1 = 0.034	1.03
313.15 K, 101 kPa, x1 = 0.055	1.37
313.15 K, 101.33 kPa, x1 = 0.008	0.738
313.15 K, 101.33 kPa, x1 = 0.02	0.846
313.15 K, 101.33 kPa, x1 = 0.026	0.981
313.15 K, 101.33 kPa, x1 = 0.047	1.399
318.15 K, 101 kPa, x1 = 0.001	0.58
318.15 K, 101 kPa, x1 = 0.01	0.65
318.15 K, 101 kPa, x1 = 0.022	0.77
318.15 K, 101 kPa, x1 = 0.034	0.93
318.15 K, 101 kPa, x1 = 0.055	1.22
323 K, 101 kPa, x1 = 0.06	1.32
323.15 K, 101 kPa, x1 = 0.001	0.52
323.15 K, 101 kPa, x1 = 0.022	0.71
323.15 K, 101 kPa, x1 = 0.034	0.84
323.15 K, 101 kPa, x1 = 0.055	1.11
323.15 K, 101.33 kPa, x1 = 0.008	0.616
323.15 K, 101.33 kPa, x1 = 0.02	0.705
323.15 K, 101.33 kPa, x1 = 0.026	0.811
323.15 K, 101.33 kPa, x1 = 0.04	0.962
323.15 K, 101.33 kPa, x1 = 0.047	1.129

[Cl-].[Cl-].[Cl-].[Cl-].[Sn+4] + COc1ccccc1
viscosity [mPa·s], 101 kPa
Settings	x2 = 0.5074	x2 = 0.6728	x2 = 0.782	x2 = 0.8238	x2 = 0.864	x2 = 0.9558
293.15 K	0.932	0.958	1.01	1.04	1.07	1.1
313.15 K	0.724	0.732	0.746	0.765	0.779	0.811

O=S=O + CCCCCCC
298.15 K, 101 kPa
Settings	viscosity [mPa·s]
x1 = 0.0265	0.3767
x1 = 0.0489	0.3719

CCC[NH3+].O=[N+]([O-])[O-] + O
298 K, 101 kPa
Settings	viscosity [mPa·s]
x2 = 0.1	50.56
x2 = 0.198	34.71
x2 = 0.294	24.59
x2 = 0.397	16.65
x2 = 0.494	11.43
x2 = 0.596	7.63
x2 = 0.696	5.02
x2 = 0.797	3.19
x2 = 0.9	1.86
x2 = 0.95	1.35

OCCCCO + CN(C)C=O
308.15 K, 101 kPa
Settings	viscosity [mPa·s]
x1 = 0.0565	0.762
x1 = 0.101	0.904
x1 = 0.1892	1.222
x1 = 0.2806	1.761
x1 = 0.3915	2.578
x1 = 0.4722	3.596
x1 = 0.5803	6.998
x1 = 0.6682	10.85
x1 = 0.7755	17.92
x1 = 0.8845	28.4
x1 = 0.9487	37.31

CCCCCC(CC)NC(=O)Nc1ccc(C)c(NC(=O)NC(CC)CCCCC)c1 (stereo unspecified) + CCCCC
Settings	viscosity [mPa·s]
293.15 K, 100 kPa, x1 = 0.0002	86

[Cl-].[Cl-].[Cl-].[Cl-].[Sn+4] + CCCC(=O)OC
101 kPa, x1 = 0.335
Settings	viscosity [mPa·s]
298.15 K	22.06
323.15 K	4.849

From the CheMixHub viscosity set
